Assay results reported in article PMC7827406, “Structure–Activity Relationship (SAR) Study of Spautin-1 to Entail the Discovery of Novel NEK4 Inhibitors” (International Journal of Molecular Sciences, 2021).
Like-named read-outs stand apart in the source and are kept apart here.

Legend:
Assay in all cases: biochemical
Parameters in all cases: Eurofins KinaseProfiler full panel at Km ATP, residual kinase activity (%) relative to DMSO
[1] = target: T1, IKKβ(h) (Homo sapiens, UniProt O14920)
T1 construct: gene IKBKB
T1 sequence (O14920 1-756): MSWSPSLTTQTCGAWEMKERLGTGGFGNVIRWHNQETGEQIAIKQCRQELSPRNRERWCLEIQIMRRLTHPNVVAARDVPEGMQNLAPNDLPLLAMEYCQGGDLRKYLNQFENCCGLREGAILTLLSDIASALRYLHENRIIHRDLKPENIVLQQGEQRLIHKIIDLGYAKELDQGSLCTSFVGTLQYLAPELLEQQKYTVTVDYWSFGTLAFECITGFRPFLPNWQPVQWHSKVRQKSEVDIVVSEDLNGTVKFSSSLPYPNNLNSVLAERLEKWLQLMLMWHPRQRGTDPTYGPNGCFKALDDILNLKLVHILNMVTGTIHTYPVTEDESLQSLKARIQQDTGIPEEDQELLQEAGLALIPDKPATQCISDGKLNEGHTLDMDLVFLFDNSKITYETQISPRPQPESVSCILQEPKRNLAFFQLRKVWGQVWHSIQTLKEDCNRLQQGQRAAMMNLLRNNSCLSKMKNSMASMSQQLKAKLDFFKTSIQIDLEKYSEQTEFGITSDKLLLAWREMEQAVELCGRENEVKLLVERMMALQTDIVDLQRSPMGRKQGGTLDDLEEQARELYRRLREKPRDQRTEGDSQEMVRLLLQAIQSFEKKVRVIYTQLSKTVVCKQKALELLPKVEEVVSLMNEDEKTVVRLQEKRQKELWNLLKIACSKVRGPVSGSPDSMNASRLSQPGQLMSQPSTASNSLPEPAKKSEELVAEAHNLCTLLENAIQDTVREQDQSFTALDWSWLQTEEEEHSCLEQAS
Method in brief: (§1)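 Radiometric kinase activity assays were run with ATP at Km and compounds at 10 µM, and remaining activity (%) was reported. A separate competitive binding screen measured DNA-tagged kinase displaced from immobilized active-site ligands by qPCR, giving percent kinase still bound at 10 µM compound in DMSO.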

[2] = target: T2, CHK2(h) (Homo sapiens, UniProt O96017)
T2 construct: gene CHEK2
T2 sequence (O96017 whole entry): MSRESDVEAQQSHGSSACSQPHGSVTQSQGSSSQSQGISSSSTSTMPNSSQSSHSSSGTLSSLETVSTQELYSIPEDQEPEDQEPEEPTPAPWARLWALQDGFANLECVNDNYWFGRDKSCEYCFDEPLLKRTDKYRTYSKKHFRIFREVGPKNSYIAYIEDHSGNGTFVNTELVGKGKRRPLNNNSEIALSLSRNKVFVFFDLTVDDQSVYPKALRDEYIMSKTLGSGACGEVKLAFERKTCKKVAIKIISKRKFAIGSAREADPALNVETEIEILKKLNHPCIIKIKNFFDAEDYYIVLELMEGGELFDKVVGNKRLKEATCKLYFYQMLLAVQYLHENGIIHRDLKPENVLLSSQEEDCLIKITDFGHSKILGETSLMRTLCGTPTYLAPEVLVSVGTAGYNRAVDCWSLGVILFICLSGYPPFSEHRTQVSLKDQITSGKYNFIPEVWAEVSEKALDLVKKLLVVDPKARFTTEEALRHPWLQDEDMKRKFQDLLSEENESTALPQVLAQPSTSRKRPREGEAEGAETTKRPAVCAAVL
Method in brief: as §1

[3] = target: CDK6/cyclinD3(h) (Homo sapiens, UniProt Q00534)
Sequence of CDK6/cyclinD3(h) (Q00534 whole entry): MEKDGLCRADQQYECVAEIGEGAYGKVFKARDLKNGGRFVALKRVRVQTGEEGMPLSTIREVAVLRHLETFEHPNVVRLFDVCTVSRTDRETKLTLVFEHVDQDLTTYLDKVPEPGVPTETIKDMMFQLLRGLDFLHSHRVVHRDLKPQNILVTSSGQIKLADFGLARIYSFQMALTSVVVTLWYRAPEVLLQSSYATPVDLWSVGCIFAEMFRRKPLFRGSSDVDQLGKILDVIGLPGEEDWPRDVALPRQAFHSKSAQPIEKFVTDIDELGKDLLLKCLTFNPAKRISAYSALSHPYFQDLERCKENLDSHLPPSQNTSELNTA
Sequence of CDK6/cyclinD3(h) (P30281 whole entry partner): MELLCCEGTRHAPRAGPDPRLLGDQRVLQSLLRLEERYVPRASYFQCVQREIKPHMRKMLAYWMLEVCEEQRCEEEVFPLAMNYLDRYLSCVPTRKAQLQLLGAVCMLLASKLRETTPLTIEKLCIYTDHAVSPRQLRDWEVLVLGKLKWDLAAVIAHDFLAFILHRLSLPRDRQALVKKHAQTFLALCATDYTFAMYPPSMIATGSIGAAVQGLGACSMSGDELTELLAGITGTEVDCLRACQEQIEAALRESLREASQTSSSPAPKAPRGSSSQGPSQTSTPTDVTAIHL
Method in brief: as §1

[4] = target: T3, LATS1(h) (Homo sapiens, UniProt O95835)
T3 sequence (O95835 1-1130): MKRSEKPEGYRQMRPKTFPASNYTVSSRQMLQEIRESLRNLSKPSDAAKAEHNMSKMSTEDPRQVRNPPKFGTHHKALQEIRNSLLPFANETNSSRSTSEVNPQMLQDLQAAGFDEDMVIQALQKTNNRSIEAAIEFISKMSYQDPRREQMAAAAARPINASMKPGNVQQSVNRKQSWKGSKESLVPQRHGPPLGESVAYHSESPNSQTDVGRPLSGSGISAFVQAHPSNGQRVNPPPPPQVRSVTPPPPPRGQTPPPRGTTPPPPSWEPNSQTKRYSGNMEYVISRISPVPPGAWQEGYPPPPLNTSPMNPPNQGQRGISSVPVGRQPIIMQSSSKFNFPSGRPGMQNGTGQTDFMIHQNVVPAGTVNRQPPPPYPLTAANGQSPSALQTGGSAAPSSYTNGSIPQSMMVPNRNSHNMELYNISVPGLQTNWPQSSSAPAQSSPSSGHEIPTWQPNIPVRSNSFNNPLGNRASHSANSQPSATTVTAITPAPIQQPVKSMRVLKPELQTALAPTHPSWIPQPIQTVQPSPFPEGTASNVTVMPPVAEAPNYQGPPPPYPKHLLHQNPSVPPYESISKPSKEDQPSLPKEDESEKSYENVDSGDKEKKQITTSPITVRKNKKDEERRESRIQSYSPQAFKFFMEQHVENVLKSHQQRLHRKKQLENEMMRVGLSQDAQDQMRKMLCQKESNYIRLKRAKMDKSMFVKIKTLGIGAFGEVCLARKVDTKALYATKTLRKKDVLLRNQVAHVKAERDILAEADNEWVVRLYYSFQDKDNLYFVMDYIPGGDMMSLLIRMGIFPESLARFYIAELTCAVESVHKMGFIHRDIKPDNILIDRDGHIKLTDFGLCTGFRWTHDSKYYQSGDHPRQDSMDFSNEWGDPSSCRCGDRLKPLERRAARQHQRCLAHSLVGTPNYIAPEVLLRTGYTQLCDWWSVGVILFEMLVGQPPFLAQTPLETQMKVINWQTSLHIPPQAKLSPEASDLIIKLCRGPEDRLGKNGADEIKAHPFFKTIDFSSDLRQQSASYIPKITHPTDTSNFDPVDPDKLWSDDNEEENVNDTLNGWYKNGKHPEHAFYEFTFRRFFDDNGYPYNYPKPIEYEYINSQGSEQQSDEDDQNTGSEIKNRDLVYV
Method in brief: as §1

[5] = target: T4, CK2(h) (Homo sapiens, UniProt P68400)
T4 construct: gene CSNK2A1
T4 sequence (P68400 whole entry): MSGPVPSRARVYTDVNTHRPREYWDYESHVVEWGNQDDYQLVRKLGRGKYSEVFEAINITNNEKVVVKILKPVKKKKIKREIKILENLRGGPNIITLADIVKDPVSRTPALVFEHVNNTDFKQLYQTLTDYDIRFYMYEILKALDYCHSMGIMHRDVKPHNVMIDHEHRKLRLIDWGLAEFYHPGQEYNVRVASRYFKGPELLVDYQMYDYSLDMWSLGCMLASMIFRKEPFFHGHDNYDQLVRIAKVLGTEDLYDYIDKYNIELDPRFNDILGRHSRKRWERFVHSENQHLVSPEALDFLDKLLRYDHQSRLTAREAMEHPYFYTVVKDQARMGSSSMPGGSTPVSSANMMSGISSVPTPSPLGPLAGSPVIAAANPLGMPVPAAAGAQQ
T4 sequence (P67870 whole entry partner): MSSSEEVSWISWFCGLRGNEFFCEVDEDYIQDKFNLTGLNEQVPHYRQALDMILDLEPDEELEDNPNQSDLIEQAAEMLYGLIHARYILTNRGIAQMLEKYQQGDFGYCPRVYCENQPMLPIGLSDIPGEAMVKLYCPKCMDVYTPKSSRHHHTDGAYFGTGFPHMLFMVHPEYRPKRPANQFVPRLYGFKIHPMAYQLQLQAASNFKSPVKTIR
Method in brief: as §1

[6] = read-out: Residual activity (%) 5at
[7] = read-out: Residual activity (%) 5as
[8] = read-out: Residual activity (%) 5ay
[9] = read-out: Residual activity (%) Spautin-1 5aa

## Fc1ccc2ncnc(NCCc3ccc(Cl)cc3)c2c1 [5at, N-[2-(4-Chlorophenyl)Ethyl]-6-Fluoro-4-Quinazolinamine]
[1]; [6]
  remaining activity at 10 µM: 98%
[2]; [6]
  remaining activity at 10 µM: 75%
[3]; [6]
  remaining activity at 10 µM: 98%
[4]; [6]
  remaining activity at 10 µM: 83%
[5]; [6]
  remaining activity at 10 µM: 87%

## Fc1ccc(CCNc2ncnc3ccc(F)cc23)cc1 [5as, 6-Fluoro-N-[2-(4-Fluorophenyl)Ethyl]-4-Quinazolinamine]
[1]; [7]
  remaining activity at 10 µM: 110%
[2]; [7]
  remaining activity at 10 µM: 73%
[3]; [7]
  remaining activity at 10 µM: 96%
[4]; [7]
  remaining activity at 10 µM: 79%
[5]; [7]
  remaining activity at 10 µM: 78%

## COc1ccc2ncnc(Nc3cccc(F)c3)c2c1 [5ay, N-(3-Fluorophenyl)-6-Methoxy-4-Quinazolinamine]
[1]; [8]
  remaining activity at 10 µM: 107%
[2]; [8]
  remaining activity at 10 µM: 67%
[3]; [8]
  remaining activity at 10 µM: 87%
[4]; [8]
  remaining activity at 10 µM: 79%
[5]; [8]
  remaining activity at 10 µM: 75%

## Fc1ccc(CNc2ncnc3ccc(F)cc23)cc1 [5aa, 6-Fluoro-N-(4-fluorobenzyl)-4-Quinazolinamine]
[1]; [9]
  remaining activity at 10 µM: 106%
[2]; [9]
  remaining activity at 10 µM: 67%
[3]; [9]
  remaining activity at 10 µM: 102%
[4]; [9]
  remaining activity at 10 µM: 102%
[5]; [9]
  remaining activity at 10 µM: 83%
